Results published in PMC10343355, “Finding the Right Solvent: A Novel Screening Protocol for Identifying Environmentally Friendly and Cost-Effective Options for Benzenesulfonamide” (Molecules, 2023).

Assay: Shake-flask solubility of BSA in neat solvents and aqueous binary mixtures, spectrophotometric determination at 264 nm
Assay type: physicochemical
Details: for log(x1)exp: mole fraction solubility
Description: In order to determine the solubility of BSA in the studied solvents, excess amounts of it were added to test tubes pre-filled with a particular solvent or a binary mixture of this solvent and water in different molar proportions. Saturated solutions prepared in this manner were placed in an ES-20/60 Orbital Shaker Incubator from Biosan (Riga, Latvia) and incubated for 24 h at different temperatures. Four temperatures were used in the range from 25 °C to 40 °C with 5 °C intervals. The temperature in the incubator was adjusted with 0.1-degree accuracy with a 0.5-degree variance in a 24 h cycle. Simultaneously, the samples were mixed at 60 rev/min. In the next stage, the filtration of the samples took place, utilizing syringes equipped with PTFE filters with 0.22 µm pore size. Since the temperature difference between the measured solutions and used instruments can possibly lead to precipitation, all of the used test tubes, pipette tips, syringes, and filters were initially heated. This was carried out by placing them in the same incubator as the samples and heating them at exactly the same temperature prior to the handling of the samples. This was particularly important in the case of elevated temperatures, as the difference between, e.g., 40 °C and room temperature is quite extensive. Then, small amounts of the obtained filtrate were diluted in different test tubes containing methanol and measured spectrophotometrically. In order to determine the mole fractions of BSA in the samples, their density was also measured by weighing a 1 mL volume of each of the solutions, taken by using an Eppendorf Reference 2 pipette (Hamburg, Germany), in 10 mL volumetric flasks. The systematic error of the pipette was 6 μL. The precision of the RADWAG (Radom, Poland) AS 110.R2 PLUS analytical balance that was used in this study was 0.1 mg. The A360 spectrophotometer from AOE Instruments (Shanghai, China) was used for solubility determination. The spectra were recorded in the 190 nm to 400 nm wavelength range with a 1 nm resolution. Methanol was used for both the dilution of the samples and the initial calibration of the spectrophotometer. The analytical wavelength was determined to be 264 nm, and the absorbance of the samples at this wavelength was used for the determination of the BSA concentration in the samples and the subsequent calculation of its mole fractions. Three separate measurements were used, and the resulting values were averaged. The calibration curve for BSA was generated by preparing successive dilutions of an initial stock solution and performing spectrophotometric measurements of the resulting solutions with decreasing concentrations. The molar concentrations of measured solutions were 3.19 × 10^−3, 2.84 × 10^−3, 2.46 × 10^−3, 2.13 × 10^−3, 1.88 × 10^−3, 1.60 × 10^−3, 1.26 × 10^−3, 9.53 × 10^−4, 5.70 × 10^−4, and 4.80 × 10^−4 M). The relationship between the absorbance values at 264 nm and the solution concentration was described by the linear equation A = 470.86 × C + 0.0093 (A—absorbance; C—molar concentration), with a determination coefficient R^2 equal 0.9996, denoting high linearity.

NS(=O)(=O)c1ccccc1 [BSA, Benzenesulfonamide]
solubility, X^exp × 10^3 (4FM+water, x2*(4FM)=0.2, 298.15 K): 23.42 ± 0.86 mole fraction × 10^3 | solubility, X^exp × 10^3 (4FM+water, x2*(4FM)=0.2, 303.15 K): 32.61 ± 1.65 mole fraction × 10^3 | solubility, X^exp × 10^3 (4FM+water, x2*(4FM)=0.2, 308.15 K): 48.14 ± 1.59 mole fraction × 10^3 | solubility, X^exp × 10^3 (4FM+water, x2*(4FM)=0.2, 313.15 K): 69.19 ± 2.56 mole fraction × 10^3 | solubility, X^exp × 10^3 (4FM+water, x2*(4FM)=0.4, 298.15 K): 45.67 ± 0.33 mole fraction × 10^3 | solubility, X^exp × 10^3 (4FM+water, x2*(4FM)=0.4, 303.15 K): 68.93 ± 1.12 mole fraction × 10^3 | solubility, X^exp × 10^3 (4FM+water, x2*(4FM)=0.4, 308.15 K): 102.78 ± 3.56 mole fraction × 10^3 | solubility, X^exp × 10^3 (4FM+water, x2*(4FM)=0.4, 313.15 K): 142.57 ± 6.01 mole fraction × 10^3 | solubility, X^exp × 10^3 (4FM+water, x2*(4FM)=0.6, 298.15 K): 61.48 ± 0.85 mole fraction × 10^3 | solubility, X^exp × 10^3 (4FM+water, x2*(4FM)=0.6, 303.15 K): 101.16 ± 0.91 mole fraction × 10^3 | solubility, X^exp × 10^3 (4FM+water, x2*(4FM)=0.6, 308.15 K): 146.31 ± 6.19 mole fraction × 10^3 | solubility, X^exp × 10^3 (4FM+water, x2*(4FM)=0.6, 313.15 K): 196.38 ± 7.85 mole fraction × 10^3 | solubility, X^exp × 10^3 (4FM+water, x2*(4FM)=0.8, 298.15 K): 68.53 ± 0.63 mole fraction × 10^3 | solubility, X^exp × 10^3 (4FM+water, x2*(4FM)=0.8, 303.15 K): 118.09 ± 6.45 mole fraction × 10^3 | solubility, X^exp × 10^3 (4FM+water, x2*(4FM)=0.8, 308.15 K): 178.71 ± 6.67 mole fraction × 10^3 | solubility, X^exp × 10^3 (4FM+water, x2*(4FM)=0.8, 313.15 K): 242.26 ± 2.09 mole fraction × 10^3 | solubility, X^exp × 10^3 (DMF+water, x2*(DMF)=0.2, 298.15 K): 42.18 ± 0.83 mole fraction × 10^3 | solubility, X^exp × 10^3 (DMF+water, x2*(DMF)=0.2, 303.15 K): 46.69 ± 1.75 mole fraction × 10^3 | solubility, X^exp × 10^3 (DMF+water, x2*(DMF)=0.2, 308.15 K): 54.78 ± 1.76 mole fraction × 10^3 | solubility, X^exp × 10^3 (DMF+water, x2*(DMF)=0.2, 313.15 K): 63.21 ± 1.40 mole fraction × 10^3 | solubility, X^exp × 10^3 (DMF+water, x2*(DMF)=0.4, 298.15 K): 161.16 ± 3.97 mole fraction × 10^3 | solubility, X^exp × 10^3 (DMF+water, x2*(DMF)=0.4, 303.15 K): 179.12 ± 10.87 mole fraction × 10^3 | solubility, X^exp × 10^3 (DMF+water, x2*(DMF)=0.4, 308.15 K): 202.07 ± 2.93 mole fraction × 10^3 | solubility, X^exp × 10^3 (DMF+water, x2*(DMF)=0.4, 313.15 K): 233.72 ± 14.10 mole fraction × 10^3 | solubility, X^exp × 10^3 (DMF+water, x2*(DMF)=0.6, 298.15 K): 231.63 ± 6.50 mole fraction × 10^3 | solubility, X^exp × 10^3 (DMF+water, x2*(DMF)=0.6, 303.15 K): 253.07 ± 9.75 mole fraction × 10^3 | solubility, X^exp × 10^3 (DMF+water, x2*(DMF)=0.6, 308.15 K): 281.23 ± 1.05 mole fraction × 10^3 | solubility, X^exp × 10^3 (DMF+water, x2*(DMF)=0.6, 313.15 K): 319.28 ± 11.90 mole fraction × 10^3 | solubility, X^exp × 10^3 (DMF+water, x2*(DMF)=0.8, 298.15 K): 268.17 ± 4.27 mole fraction × 10^3 | solubility, X^exp × 10^3 (DMF+water, x2*(DMF)=0.8, 303.15 K): 286.69 ± 8.71 mole fraction × 10^3 | solubility, X^exp × 10^3 (DMF+water, x2*(DMF)=0.8, 308.15 K): 317.90 ± 8.49 mole fraction × 10^3 | solubility, X^exp × 10^3 (DMF+water, x2*(DMF)=0.8, 313.15 K): 356.68 ± 8.53 mole fraction × 10^3 | solubility, X^exp × 10^3 (DMSO+water, x2*(DMSO)=0.2, 298.15 K): 35.84 ± 1.56 mole fraction × 10^3 | solubility, X^exp × 10^3 (DMSO+water, x2*(DMSO)=0.2, 303.15 K): 40.39 ± 0.41 mole fraction × 10^3 | solubility, X^exp × 10^3 (DMSO+water, x2*(DMSO)=0.2, 308.15 K): 45.37 ± 0.84 mole fraction × 10^3 | solubility, X^exp × 10^3 (DMSO+water, x2*(DMSO)=0.2, 313.15 K): 50.66 ± 1.03 mole fraction × 10^3 | solubility, X^exp × 10^3 (DMSO+water, x2*(DMSO)=0.4, 298.15 K): 136.28 ± 5.21 mole fraction × 10^3 | solubility, X^exp × 10^3 (DMSO+water, x2*(DMSO)=0.4, 303.15 K): 153.75 ± 0.89 mole fraction × 10^3 | solubility, X^exp × 10^3 (DMSO+water, x2*(DMSO)=0.4, 308.15 K): 175.06 ± 5.16 mole fraction × 10^3 | solubility, X^exp × 10^3 (DMSO+water, x2*(DMSO)=0.4, 313.15 K): 198.55 ± 12.9 mole fraction × 10^3 | solubility, X^exp × 10^3 (DMSO+water, x2*(DMSO)=0.6, 298.15 K): 257.01 ± 5.42 mole fraction × 10^3 | solubility, X^exp × 10^3 (DMSO+water, x2*(DMSO)=0.6, 303.15 K): 279.84 ± 7.39 mole fraction × 10^3 | solubility, X^exp × 10^3 (DMSO+water, x2*(DMSO)=0.6, 308.15 K): 307.25 ± 8.78 mole fraction × 10^3 | solubility, X^exp × 10^3 (DMSO+water, x2*(DMSO)=0.6, 313.15 K): 335.53 ± 2.01 mole fraction × 10^3 | solubility, X^exp × 10^3 (DMSO+water, x2*(DMSO)=0.8, 298.15 K): 301.83 ± 4.01 mole fraction × 10^3 | solubility, X^exp × 10^3 (DMSO+water, x2*(DMSO)=0.8, 303.15 K): 324.42 ± 10.85 mole fraction × 10^3 | solubility, X^exp × 10^3 (DMSO+water, x2*(DMSO)=0.8, 308.15 K): 352.69 ± 7.04 mole fraction × 10^3 | solubility, X^exp × 10^3 (DMSO+water, x2*(DMSO)=0.8, 313.15 K): 381.96 ± 8.16 mole fraction × 10^3 | solubility, X^exp × 10^3 (DMSO+water, x2*=0.0 (neat water), 298.15 K): 0.56 ± 0.03 mole fraction × 10^3 | solubility, X^exp × 10^3 (DMSO+water, x2*=0.0 (neat water), 303.15 K): 0.83 ± 0.01 mole fraction × 10^3 | solubility, X^exp × 10^3 (DMSO+water, x2*=0.0 (neat water), 308.15 K): 1.17 ± 0.04 mole fraction × 10^3 | solubility, X^exp × 10^3 (DMSO+water, x2*=0.0 (neat water), 313.15 K): 1.53 ± 0.03 mole fraction × 10^3 | log(x1)exp (solvent 4-Formylmorpholine, T 25.00 °C): -1.16 | log(x1)exp (solvent 4-Formylmorpholine, T 30.00 °C): -0.88 | log(x1)exp (solvent 4-Formylmorpholine, T 35.00 °C): -0.70 | log(x1)exp (solvent 4-Formylmorpholine, T 40.00 °C): -0.55 | log(x1)exp (solvent DMF, T 25.00 °C): -0.54 | log(x1)exp (solvent DMF, T 30.00 °C): -0.51 | log(x1)exp (solvent DMF, T 35.00 °C): -0.47 | log(x1)exp (solvent DMF, T 40.00 °C): -0.42 | log(x1)exp (solvent DMSO, T 25.00 °C): -0.50 | log(x1)exp (solvent DMSO, T 30.00 °C): -0.47 | log(x1)exp (solvent DMSO, T 35.00 °C): -0.43 | log(x1)exp (solvent DMSO, T 40.00 °C): -0.40 | log(x1)exp (solvent water, T 25.00 °C): -3.25 | log(x1)exp (solvent water, T 30.00 °C): -3.08 | log(x1)exp (solvent water, T 35.00 °C): -2.93 | log(x1)exp (solvent water, T 40.00 °C): -2.82 | solubility, X^exp × 10^3 (x2*=1.0 (neat 4FM), 298.15 K): 69.45 ± 0.49 mole fraction × 10^3 | solubility, X^exp × 10^3 (x2*=1.0 (neat 4FM), 303.15 K): 132.21 ± 4.61 mole fraction × 10^3 | solubility, X^exp × 10^3 (x2*=1.0 (neat 4FM), 308.15 K): 200.82 ± 7.43 mole fraction × 10^3 | solubility, X^exp × 10^3 (x2*=1.0 (neat 4FM), 313.15 K): 279.66 ± 2.42 mole fraction × 10^3 | solubility, X^exp × 10^3 (x2*=1.0 (neat DMF), 298.15 K): 288.65 ± 1.99 mole fraction × 10^3 | solubility, X^exp × 10^3 (x2*=1.0 (neat DMF), 303.15 K): 308.50 ± 5.81 mole fraction × 10^3 | solubility, X^exp × 10^3 (x2*=1.0 (neat DMF), 308.15 K): 336.89 ± 13.52 mole fraction × 10^3 | solubility, X^exp × 10^3 (x2*=1.0 (neat DMF), 313.15 K): 378.60 ± 8.94 mole fraction × 10^3 | solubility, X^exp × 10^3 (x2*=1.0 (neat DMSO), 298.15 K): 319.77 ± 2.83 mole fraction × 10^3 | solubility, X^exp × 10^3 (x2*=1.0 (neat DMSO), 303.15 K): 342.67 ± 5.19 mole fraction × 10^3 | solubility, X^exp × 10^3 (x2*=1.0 (neat DMSO), 308.15 K): 369.38 ± 9.57 mole fraction × 10^3 | solubility, X^exp × 10^3 (x2*=1.0 (neat DMSO), 313.15 K): 402.31 ± 9.04 mole fraction × 10^3
